Reference: US6716809B1, “Mage-A3 peptides presented by HLA class molecules” (priority 1997, dated 2004)

Experiments:
Assay type in all cases: cell-based, human
[1] = tested on: LB1158 CD4+ clone 22; assay: IFN-γ production by CD4+ clone 22 stimulated with peptide- or protein-pulsed EBV-B cells; conditions: for IFN-γ production after stimulation with peptide of clone 22: 1 μg/ml peptide
Protocol: (§1) In order to confirm the efficacy of this protocol, dendritic cells were fed with the MAGE-3 protein, using conditions described above, to stimulate autologous CD4^+ T lymphocytes from hemochromatosis patient LB1158 or from melanoma patient 7002. After four restimulations, the specific production of IFN-γ by an aliquot of each of the microcultures stimulated with the autologous EBV-B cells loaded with MAGE-A3 were tested on day 35 for patient LB1158 and day 37 for patient 7002. For each individual, one positive microculture was cloned using autologous EBV-B cells as stimulating cells, either retrotransduced with MFG Ii MAGE-A3 for LB1158, or fed with protein MAGE-A3 for patient 7002. […] Specifically, autologous EBV-B cells were incubated for 20 h in the presence of 20 μg/ml of recombinant His-MAGE-A3 protein. Clone 22 (2500 cells) was incubated overnight with 5000 MAGE-A3 loaded EBV-B cells in round botton microwells in the presence or absence of monoclonal antibodies which recognize HLA-A,B,C (W6/32) or HLA-DR (2B6). IFN-γ secretion was measured after 20 h by ELISA (FIG. 15A).
(§2) Peptides corresponding to parts of MAGE-A3 (e.g., MAGE107-122, MAGE111-126, MAGE115-130, MAGE119-134) were tested for recognition by clone 2 and 22. HLA-DR13 EBV-B cells were pulsed for 2 h with different concentrations of these peptides. Clones 2 and 37 (2500 cells) were incubated with 5000 peptide pulsed cells in round-bottomed microwells for 20 h and assayed for IFN-γ production.
(§3) Autologous or allogeneic EBV-B cells were pulsed for 2 h with 1 μg/ml MAGE-A3119-134 peptide, and then washed. Clones 2 or 22 were incubated with 5000 peptide-pulsed EBV-B cells in round-bottomed microwells for 20 h and the clones' reactivity to the EBV-B cells was measured by ELISA as IFN-γ secretion. Experiments were performed in triplicate.
(§4) Unlike HLA-class I-restricted peptides, class II-restricted peptides usually vary in length and tolerate extensions at both the amino and carboxy termini, because they are not fixed by their ends in the groove. It is therefore difficult to define precisely the length of the antigenic peptide. Therefore a large number of MAGE-A3 peptides were tested at different concentrations (Tables IV and V). […] 2500 cells of clone 37 were then cocultured for 20 h in round-bottomed microwells with 5000 peptide-pulsed cells. IFN-γ released in the supernatant of the cocultures was measured in an ELISA assay. The experiments were performed in triplicate. […] Clones 2 and 22 (2500 cells) were then cocultured for 20 h in round-bottomed microwells with 5000 peptide-pulsed cells. IFN-γ released in the supernatant of the cocultures was measured in an ELISA assay. The experiments was performed twice in duplicates.

[2] = tested on: 7002 CD4+ clone 2; assay: IFN-γ production by CD4+ clone 2 stimulated with peptide- or protein-pulsed EBV-B cells; conditions: for IFN-γ production after stimulation with peptide of clone 2: 1 μg/ml peptide
Protocol: as §1, §2, §3, §4

[3] = tested on: clone C3.43; assay: IFN-γ production by CD4 clone C3.43 stimulated with peptide- or protein-pulsed EBV-B cells; conditions: 20 μg/ml protein
[4] = EBV-B cell line 7002, DR13 positive
[5] = EBV-B cell line BM16, DR13 negative
[6] = EBV-B cell line BOB, DR13 negative
[7] = EBV-B cell line BOLETH, DR13 negative
[8] = EBV-B cell line LB1118, DR13 positive
[9] = EBV-B cell line LB1158, DR13 positive
[10] = EBV-B cell line LB1622, DR13 positive
[11] = EBV-B cell line LB1859, DR13 positive
[12] = EBV-B cell line LB1861, DR13 positive
[13] = EBV-B cell line LB1869, DR13 positive
[14] = EBV-B cell line LKT3, DR13 negative
[15] = EBV-B cell line MZ2, DR13 positive
[16] = EBV-B cell line OLGA, DR13 negative
[17] = EBV-B cell line OMW, DR13 positive
[18] = EBV-B cell line RML, DR13 negative
[19] = EBV-B cell line RSH, DR13 negative
[20] = EBV-B cell line TAB089, DR13 negative
[21] = EBV-B cell line TISI, DR13 negative
[22] = EBV-B cell line VAF, DR13 negative
[23] = EBV-B cell line VET, DR13 negative

“FLLLKYRAREPVTKAE (listed as Homo sapiens) [MAGE-A3119-134]” was tested, and the “IFN-γ production after stimulation with peptide of clone 22” value (“IFN-γ production … of clone 22” below) [1, 4] was over 4000 pg/mL, the “IFN-γ production … of clone 22” value [1, 5] was 7 pg/mL and the “IFN-γ production … of clone 22” value [1, 6] was 46 pg/mL. The “IFN-γ production … of clone 22” value [1, 7] was 6 pg/mL, the “IFN-γ production … of clone 22” value [1, 8] was 1345 pg/mL and the “IFN-γ production … of clone 22” value [1, 9] was 3967 pg/mL. For the same molecule, the “IFN-γ production … of clone 22” value [1, 10] was 1250 pg/mL, the “IFN-γ production … of clone 22” value [1, 11] was over 4000 pg/mL and the “IFN-γ production … of clone 22” value [1, 12] was 3865 pg/mL. For the same molecule, the “IFN-γ production … of clone 22” value [1, 13] was over 4000 pg/mL, the “IFN-γ production … of clone 22” value [1, 14] was 0 pg/mL and the “IFN-γ production … of clone 22” value [1, 15] was 2030 pg/mL. For the same molecule, the “IFN-γ production … of clone 22” value [1, 16] was 0 pg/mL, the “IFN-γ production … of clone 22” value [1, 17] was 3651 pg/mL and the “IFN-γ production … of clone 22” value [1, 18] was 6 pg/mL. For the same molecule, the “IFN-γ production … of clone 22” value [1, 19] was 0 pg/mL, the “IFN-γ production … of clone 22” value [1, 20] was 0 pg/mL and the “IFN-γ production … of clone 22” value [1, 21] was 4 pg/mL. For the same molecule, the “IFN-γ production … of clone 22” value [1, 22] was 49 pg/mL, the “IFN-γ production … of clone 22” value [1, 23] was 56 pg/mL and the “stimulation of clone 22” value ([1]; similar experiments) was “also stimulated”. For the same molecule, the “IFN-γ production after stimulation with peptide of clone 2” value [2, 4] was over 4000 pg/mL, the “IFN-γ production after stimulation with peptide of clone 2” value [2, 5] was 12 pg/mL and the “IFN-γ production after stimulation with peptide of clone 2” value [2, 6] was 59 pg/mL. For the same molecule, the “IFN-γ production after stimulation with peptide of clone 2” value [2, 7] was 0 pg/mL, the “IFN-γ production after stimulation with peptide of clone 2” value [2, 8] was over 4000 pg/mL and the “IFN-γ production after stimulation with peptide of clone 2” value [2, 9] was over 4000 pg/mL. The “IFN-γ production after stimulation with peptide of clone 2” value [2, 10] was 3993 pg/mL, the “IFN-γ production after stimulation with peptide of clone 2” value [2, 11] was over 4000 pg/mL and the “IFN-γ production after stimulation with peptide of clone 2” value [2, 12] was over 4000 pg/mL. The “IFN-γ production after stimulation with peptide of clone 2” value [2, 13] was over 4000 pg/mL, the “IFN-γ production after stimulation with peptide of clone 2” value [2, 14] was 0 pg/mL and the “IFN-γ production after stimulation with peptide of clone 2” value [2, 15] was over 4000 pg/mL. The “IFN-γ production after stimulation with peptide of clone 2” value [2, 16] was 0 pg/mL, the “IFN-γ production after stimulation with peptide of clone 2” value [2, 17] was 3153 pg/mL and the “IFN-γ production after stimulation with peptide of clone 2” value [2, 18] was 0 pg/mL. For the same molecule, the “IFN-γ production after stimulation with peptide of clone 2” value [2, 19] was 0 pg/mL, the “IFN-γ production after stimulation with peptide of clone 2” value [2, 20] was 0 pg/mL and the “IFN-γ production after stimulation with peptide of clone 2” value [2, 21] was 4 pg/mL. For the same molecule, the “IFN-γ production after stimulation with peptide of clone 2” value [2, 22] was 0 pg/mL, the “IFN-γ production after stimulation with peptide of clone 2” value [2, 23] was 0 pg/mL and the “secretion of IFN-γ by clone 2” value ([2]; peptide at 10 ng/ml, HLA-DR13 EBV-B cells) was “stimulated secretion of IFN-γ”.

B1: MAGE-A3: MAGE-A3 protein; recombinant His-MAGE-A3 produced in E. coli, or expressed from MFG MAGE-A3 retrovirus in Example 6 (protein, listed as Homo sapiens)
chain: MPLEQRSQHCKPEEGLEARGEALGLVGAQAPATEEQEAASSSSTLVEVTLGEVPAAESPDPPQSPQGASSLPTTMNYPLWSQSYEDSSNQEEEGPSTFPDLESEFQAALSRKVAELVHFLLLKYRAREPVTKAEMLGSVVGNWQYFFPVIFSKASSSLQLVFGIELMEVDPIGHLYIFATCLGLSYDGLLGDNQIMPKAGLLIIVLAIIAREGDCAPEEKIWEELSVLEVFEGREDSILGDPKKLLTQHFVQENYLEYRQVPGSDPACYEFLWGPRALVETSYVKVLHHMVKISGGPHISYPPLHEWVLREGEE
modifications: His tag
In the case of B1, the “IFN-γ secretion by clone 22 upon stimulation with protein-loaded autologous EBV-B cells” value [1] is reported as “secreted IFN-γ”, the “recognition by clone C3.43 of autologous EBV-B cells loaded with protein” value [3] is reported as “recognized” and the “IFN-γ secretion by clone 2 upon stimulation with protein-loaded autologous EBV-B cells” value [2] is reported as “secreted IFN-γ”.
